{
  "source": "paper PMC12187842",
  "about": "“A novel molecule targeting neutrophil-mediated B-1a cell trogocytosis attenuates sepsis-induced acute lung injury” (Frontiers in Immunology, 2025)",
  "assay_type_in_all_cases": "in vivo, mouse",
  "key": {"[1]": {"test_system": "CLP-induced sepsis in C57BL/6 mice", "experiment": "Plasma pro-inflammatory cytokines in CLP mice by ELISA", "details": "C11 10 mg/kg i.p. once after CLP (Figure 5 legend: 10 μg/kg); 20 h; n = 5-7/group; p < 0.05 vs. CLP vehicle", "source_text": "(§1) Mice were anesthetized with 2% isoflurane in oxygen, and sepsis was induced via cecal ligation and puncture (CLP) ([26]). A 1-cm midline abdominal incision was made to expose the cecum, which was ligated 1-cm proximal to its end using a 4-0 silk suture. The cecum then was perforated with a single through-and-through puncture using a 22-gauge needle, positioned midway between the ligation and the tip of the cecum. A small amount of fecal material was gently extruded from the perforation sites to confirm the patency of the punctures, and the cecum was subsequently returned to the peritoneal cavity. Following abdominal closure, resuscitation was provided via subcutaneous (s.c.) injection of 500 µL normal saline. Postoperative analgesia was administered with a single dose of 0.1 mg/kg buprenorphine. […]\n(§2) Blood was collected by heart puncture. Plasma levels of organ injury markers (ALT: alanine transaminase, AST: aspartate transferase, and LDH: lactate dehydrogenase) were assessed by using colorimetric enzymatic assays (MedTest Dx, Canton, MI) according to the manufacturer’s protocol. Plasma levels of pro-inflammatory cytokines (TNFα: tumor necrosis factor α, and IL-6: interleukin-6) were measured by using mouse-specific ELISA kits (BD Biosciences)."}, "[2]": {"test_system": "CLP-induced sepsis in C57BL/6 mice", "experiment": "Plasma organ injury markers in CLP mice by colorimetric enzymatic assays", "details": "C11 10 mg/kg i.p. once after CLP (Figure 5 legend: 10 μg/kg); 20 h; n = 5-7/group; vs. CLP vehicle", "source_text": "(§3) Mice were anesthetized with 2% isoflurane in oxygen, and sepsis was induced via cecal ligation and puncture (CLP) ([26]). A 1-cm midline abdominal incision was made to expose the cecum, which was ligated 1-cm proximal to its end using a 4-0 silk suture. The cecum then was perforated with a single through-and-through puncture using a 22-gauge needle, positioned midway between the ligation and the tip of the cecum. A small amount of fecal material was gently extruded from the perforation sites to confirm the patency of the punctures, and the cecum was subsequently returned to the peritoneal cavity. Following abdominal closure, resuscitation was provided via subcutaneous (s.c.) injection of 500 µL normal saline. Postoperative analgesia was administered with a single dose of 0.1 mg/kg buprenorphine. To evaluate the effects of the therapeutic peptide (named Compound 11 or C11) (synthesized by GenScript USA Inc., Piscataway, NJ) on sepsis, C57BL/6 mice were assigned to three experimental groups: the Sham group, the CLP group treated with vehicle, and the CLP group treated with C11 (10 mg/kg). C11 was dissolved in DMSO (10 mg/mL) and diluted with saline to a total volume of 500 µL. The peptide was administered once, immediately after surgery, via intraperitoneal (i.p.) injection. Mice in the vehicle group received an equivalent volume of DMSO and normal saline via i.p. injection. After 20 h, lungs were harvested, and blood was collected via cardiac puncture. For the survival study, animals received a single subcutaneous (s.c.) injection of 0.5 mg/kg imipenem at the end of the CLP.\nas §2"}, "[3]": {"test_system": "CLP-induced sepsis in C57BL/6 mice", "experiment": "Lung tissue mRNA expression in CLP mice by real-time qPCR", "details": "C11 10 mg/kg i.p. once after CLP (Figure 5 legend: 10 μg/kg); 20 h; normalized to β-actin; n = 5-7/group; vs. CLP vehicle", "source_text": "as §3\nTotal RNA was extracted from lungs using a TRIzol reagent (Thermo Fisher Scientific) according to the manufacturer’s instructions. cDNA was synthesized using M-MLV reverse transcriptase (Thermo Fisher Scientific). Quantitative real-time PCR (qPCR) was performed using SYBR Green PCR Master Mix (Thermo Fisher Scientific) with a StepOnePlus Real-Time PCR thermocycler (Thermo Fisher Scientific). Mouse β-actin served as an endogenous control to normalize mRNA levels using the comparative Ct method. […]"}, "[4]": {"test_system": "CLP-induced sepsis in C57BL/6 mice", "experiment": "Lung myeloperoxidase activity in CLP mice", "details": "C11 10 mg/kg i.p. once after CLP (Figure 5 legend: 10 μg/kg); 20 h; n = 5-7/group; vs. CLP vehicle", "source_text": "as §1\nApproximately 50 to 100 mg of septic lung tissue, previously snap-frozen in liquid nitrogen and pulverized into a fine powder, was homogenized in potassium phosphate (KPO4) buffer containing 0.5% hexadecyltrimethylammonium bromide (HTAB; MilliporeSigma, Burlington, MA). […] The enzymatic reaction was monitored by measuring light absorbance at 460 nm over a five-minute period. MPO activity was expressed as units per gram of tissue, where one unit was defined as the change in absorbance per minute."}, "[5]": {"test_system": "CLP-induced sepsis in C57BL/6 mice", "experiment": "Lung wet-to-dry weight ratio in CLP mice", "details": "C11 10 mg/kg i.p. once after CLP (Figure 5 legend: 10 μg/kg); 20 h; n = 5-7/group; vs. CLP vehicle", "source_text": "as §3, with “The peptide was administered once, immediately after surgery, via intraperitoneal (i.p.) injection. Mice in the vehicle group received an equivalent volume of DMSO and normal saline via i.p. injection. After 20 h, lungs were harvested, and blood was collected via cardiac puncture. For the survival study, animals received a single subcutaneous (s.c.) injection of 0.5 mg/kg imipenem at the end of the CLP.” left out\nLung wet and dry weights were measured as previously described ([30]). […] The wet-to-dry weight ratio was calculated as an indicator of pulmonary edema."}, "[6]": {"test_system": "CLP-induced sepsis in C57BL/6 mice", "experiment": "Lung histopathology (H&E) in CLP mice", "details": "C11 10 mg/kg i.p. once after CLP (Figure 5 legend: 10 μg/kg); 20 h; n = 5-7/group; vs. CLP vehicle", "source_text": "as §3, with “The peptide was administered once, immediately after surgery, via intraperitoneal (i.p.) injection. Mice in the vehicle group received an equivalent volume of DMSO and normal saline via i.p. injection. After 20 h, lungs were harvested, and blood was collected via cardiac puncture. For the survival study, animals received a single subcutaneous (s.c.) injection of 0.5 mg/kg imipenem at the end of the CLP.” left out\nLung tissues were fixed in 10% formalin, embedded in paraffin, sectioned into 5-μm-thick slices, and stained with hematoxylin and eosin (H&E). […] Lung fields at ×400 magnification were scored and averaged for analyses."}, "[7]": {"test_system": "CLP-induced sepsis in C57BL/6 mice", "experiment": "TUNEL assay of lung tissue in CLP mice", "details": "C11 10 mg/kg i.p. once after CLP (Figure 5 legend: 10 μg/kg); 20 h; n = 5-7/group; vs. CLP vehicle", "source_text": "as §1\nTo determine cellular apoptosis we used a TUNEL assay kit (Roche Diagnostics, Indianapolis, IN) using 5-μm lung sections by following the manufacturer’s instructions. […] The TUNEL-positive cells were assessed by LSM900 confocal microscope (Zeiss) microscopes. The number of apoptotic cells/fields was quantified using ImageJ, Fiji software (version 1.53k)."}},
  "data": [
    {"substance": "126-ELKNRTVSWFS-136 [Compound C11]", "values": [
      {"measurement": "plasma IL-6", "setting": "[1]", "value": "significantly reduced"},
      {"measurement": "plasma TNF-α", "setting": "[1]", "value": "significantly reduced"},
      {"measurement": "blood ALT", "setting": "[2]", "value": "markedly reduced"},
      {"measurement": "blood AST", "setting": "[2]", "value": "markedly reduced"},
      {"measurement": "blood LDH", "setting": "[2]", "value": "markedly reduced"},
      {"measurement": "lung tissue CXCL1 (KC) mRNA", "setting": "[3]", "value": "significantly reduced"},
      {"measurement": "lung tissue CXCL2 (MIP-2) mRNA", "setting": "[3]", "value": "significantly reduced"},
      {"measurement": "lung tissue IL-6 mRNA", "setting": "[3]", "value": "significantly reduced"},
      {"measurement": "lung MPO activity", "setting": "[4]", "value": "attenuated"},
      {"measurement": "sepsis-induced pulmonary edema (lung wet-to-dry ratio)", "setting": "[5]", "value": "effectively reduced"},
      {"measurement": "sepsis-induced lung injury (H&E histology, lung injury score 0 to 1)", "setting": "[6]", "value": "significantly mitigated"},
      {"measurement": "lung apoptosis (TUNEL+ cells)", "setting": "[7]", "value": "reduced tissue damage and apoptosis"}
    ]}
  ]
}
